Patent US20260043803A1, “MEANS FOR DETECTING S[…]” (ACADEMISCH ZIEKENHUIS LEIDEN (H.O.D.N. LUMC), priority 2022, published 2026)

Assays:
[1] = test system: IgG antibodies; test: Microarray, serum IgG binding to printed CAA structures, controlled human infection samples; settings: three individual sera, FIG. 14
Excerpt: (§1) Immunopurified native schistosome CAA, synthetic di-, tetra-, hexa-, and octasaccharides with appropriate positive and negative controls were printed in triplicates onto epoxilane coated glass slides (Nexterion Slide E, Schott 1066643) with a MicroGrid robot (BioRobotics). See general methodology in (de Boer, Hokke et al. 2007).
(§2) Microarrays with fitted silicone gaskets (64 samples/slide) were reconstituted in 1×PBS and blocked for minimum one hour (PBS, 2% bovine serum albumin (Sigma-Aldrich A3059) with 50 mM ethanolamine (>99.5%, Sigma-Aldrich 411000)) on shaker. Each array washed in PBS Tween 0.05%, PBS and 30 ul serum sample 1:100 in buffer/array added for 1 hour incubation at room temperature on shaker. Arrays were then washed (as above) and 1:1000 detection antibodies added (goat anti-human IgG-Cy-3, Sigma-Aldrich C2571; goat anti-human IgM-AF647, Invitrogen, A21249) for 30 min room temperature incubation on shaker. Finally, slides were washed as above with an additional wash in milli-Q before they were spun dry and scanned (Agilent Scan Control™ 2006). […]
(§3) Microarray scan images were obtained through Agilent Feature Extraction 10.7.3.1 and imported into GenePixPro vs7. Spot morphology quality was inspected and median fluorescence intensity (MFI) values obtained per nanodot with an average of a triplicate per target used for analyses. […]

[2] = test system: IgM antibodies; test: Microarray, serum IgM binding to printed CAA structures, controlled human infection samples; settings: individual level, infection with 10, 20, 30 cercariae; FIG. 3-5
Excerpt: as §1
Microarrays with fitted silicone gaskets (64 samples/slide) were reconstituted in 1×PBS and blocked for minimum one hour (PBS, 2% bovine serum albumin (Sigma-Aldrich A3059) with 50 mM ethanolamine (>99.5%, Sigma-Aldrich 411000)) on shaker. Each array washed in PBS Tween 0.05%, PBS and 30 ul serum sample 1:100 in buffer/array added for 1 hour incubation at room temperature on shaker. Arrays were then washed (as above) and 1:1000 detection antibodies added (goat anti-human IgG-Cy-3, Sigma-Aldrich C2571; goat anti-human IgM-AF647, Invitrogen, A21249) for 30 min room temperature incubation on shaker. Finally, slides were washed as above with an additional wash in milli-Q before they were spun dry and scanned (Agilent Scan Control™ 2006). For nasosorption samples, they were incubated as above with the following changes. Samples were eluted in PBS 1% BSA 0.05% Triton-X and incubated as 1:2 dilution. For detection goat anti-human IgA-Dylight 650 (Novus NBP 1-75754) was used in 500×dilution.
(§4) Microarray scan images were obtained through Agilent Feature Extraction 10.7.3.1 and imported into GenePixPro vs7. Spot morphology quality was inspected and median fluorescence intensity (MFI) values obtained per nanodot with an average of a triplicate per target used for analyses. Further data processing was done in Microsoft Excel and graphs were generated using GraphPad Prism 9.3.1.

[3] = test system: IgA antibodies; test: Microarray, IgA binding in serum samples, controlled human infection; settings: 20 cercariae, n=7, eight weeks post infection; FIG. 9
Excerpt: as §1
Microarrays with fitted silicone gaskets (64 samples/slide) were reconstituted in 1×PBS and blocked for minimum one hour (PBS, 2% bovine serum albumin (Sigma-Aldrich A3059) with 50 mM ethanolamine (>99.5%, Sigma-Aldrich 411000)) on shaker. Each array washed in PBS Tween 0.05%, PBS and 30 ul serum sample 1:100 in buffer/array added for 1 hour incubation at room temperature on shaker. […] Finally, slides were washed as above with an additional wash in milli-Q before they were spun dry and scanned (Agilent Scan Control™ 2006). […] Samples were eluted in PBS 1% BSA 0.05% Triton-X and incubated as 1:2 dilution. […]
as §4

[4] = test system: IgA antibodies; test: Microarray, IgA binding in nasosorption samples, controlled human infection; settings: 20 cercariae, baseline and 8 weeks post infection; FIG. 10
Excerpt: as §1, §2, §3

Compound	IgM response pattern compared with native CAA [2]	IgM background at baseline (specificity) [2]	also measured
6-aminohexyl 2-acetamido-2-deoxy-3-O-(3-D-glucoronic acid)-6-O-(2-acetamido-2-deoxy-3-O-(3-D-glucuronic acid)-6-O-(2-acetamido-2-deoxy-3-O-(β-D-glucuronic acid)-6-O-(2-acetamido-2-deoxy-3-O-(3-D-glucuronic acid)-6-O-(2-acetamido-2-deoxy-3-O-(3-D-glucuronic acid)-β-D-galactopyranose)-β-D-galactopyranose)-3-D-galactopyranose-β-D-galactopyranose [CAA decasaccharide]	–	–	IgG response at week 8 after infection ([1]; 20 male S. mansoni cercariae): equal or stronger than to shorter CAA fragments; IgG pre-infection response ([1]; prior to infection): negligible
CC(=O)NC1C(O[C@@H]2OC(C(=O)O)[C@@H](O)C(O)C2O)[C@@H](O)C(CO)O[C@H]1OCCCCCCN (stereo partly drawn) [disaccharide, 6-aminohexyl 2-acetamido-2-deoxy-3-O-(β-D-glucoronic acid)-β-D-galactopyranose]	not representative of CAA	–	–
CC(=O)NC1C(O[C@@H]2OC(C(=O)O)[C@@H](O)C(O)C2O)[C@@H](O)C(CO)O[C@H]1OCC1O[C@@H](OCC2O[C@@H](OCC3O[C@@H](OCCCCCCN)C(NC(C)=O)C(O[C@@H]4OC(C(=O)O)[C@@H](O)C(O)C4O)[C@H]3O)C(NC(C)=O)C(O[C@@H]3OC(C(=O)O)[C@@H](O)C(O)C3O)[C@H]2O)C(NC(C)=O)C(O[C@@H]2OC(C(=O)O)[C@@H](O)C(O)C2O)[C@H]1O (some centres unmarked) [octasaccharide]	–	improves further	detection of specific IgA in serum [3]: detection; detection of specific IgA in nasosorption samples [4]: detectable
CC(=O)NC1C(O[C@@H]2OC(C(=O)O)[C@@H](O)C(O)C2O)[C@@H](O)C(CO)O[C@H]1OCC1O[C@@H](OCCCCCCN)C(NC(C)=O)C(O[C@@H]2OC(C(=O)O)[C@@H](O)C(O)C2O)[C@H]1O (stereo partly drawn) [tetrasaccharide, 6-aminohexyl 2-acetamido-2-deoxy-3-O-(β-D-glucoronic acid)-6-O-(2-acetamido-2-deoxy-3-O-(β-D-glucuronic acid)-β-D-galactopyranose)-β-D-galactopyranose]	a dynamic range resembling native material is starting to appear	too high	–
